Here are results for one compound from patent US7390838B2, “Depigmenting agents” (Pfizer Inc., priority 2003, dated 2008).

As usually defined, the melting point is the temperature of the solid-liquid transition. For `Oc1ccc(C2CCCC2)c(O)c1` [Form A, 4-cyclopentyl resorcinol], the melting point lay in the range of 65 to 66.5 °C.
